# Reference: PubChem BioAssay (NCI)
#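 Protocol summary: plate cells (96-well), add compound at 5 concentrations, incubate 48 h, interpolate endpoints linearly. TGI: concentration producing complete growth inhibition.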
# Experiments:
# Experiment in all cases: DTP human tumour cell line panel, 48 h
# [1] = system: NCI-H226 lung
# [2] = system: SN12C renal
# [3] = system: RXF 393 renal
# [4] = system: DU-145 prostate
# [5] = system: SF-295 CNS
# [6] = system: OVCAR-3 ovarian
# [7] = system: UACC-62 melanoma
# [8] = system: SK-MEL-2 melanoma
# [9] = system: COLO 205 colon
# [10] = system: EKVX NSCLC
# [11] = system: OVCAR-4 ovarian
# [12] = system: UACC-257 melanoma
# [13] = system: HOP-62 NSCLC
# [14] = system: A498 renal
# [15] = system: SNB-75 CNS
# [16] = system: NCI/ADR-RES ovarian
# [17] = system: MOLT-4 leukemia
# [18] = system: SF-539 CNS
# [19] = system: CCRF-CEM leukemia
# [20] = system: M14 melanoma
# [21] = system: MDA-N
# [22] = system: HCT-116 colon
# [23] = system: HCT-15 colon
# [24] = system: OVCAR-8 ovarian
# [25] = system: HCC-2998 colon
# [26] = system: MDA-MB-231 breast
# [27] = system: A549 NSCLC
# [28] = system: NCI-H460 lung
# [29] = system: OVCAR-5 ovarian
# [30] = system: T-47D breast
# [31] = system: NCI-H522 lung
# [32] = system: LOX IMVI melanoma
# [33] = system: KM12 colon
# [34] = system: SK-MEL-28 melanoma
# [35] = system: NCI-H23 lung
# [36] = system: PC-3 prostate
# [37] = system: K-562 leukemia
# [38] = system: SK-MEL-5 melanoma
# [39] = system: ACHN renal
structure (smiles),measurement,setting,value
CCCCCCCCNC(=S)/N=C/c1c(O)c2ccccc2oc1=O,TGI,[1],51.7 µM
same,TGI,[2],38.7 µM
same,TGI,[3],34.8 µM
same,TGI,[4],33.6 µM
same,TGI,[5],34 µM
same,TGI,[6],29.1 µM
same,TGI,[7],28.6 µM
same,TGI,[8],48 µM
same,TGI,[9],32.3 µM
same,TGI,[10],66.9 µM
same,TGI,[11],29.4 µM
same,TGI,[12],40.9 µM
same,TGI,[13],32.2 µM
same,TGI,[14],32.2 µM
same,TGI,[15],34.2 µM
same,TGI,[16],47.4 µM
same,TGI,[17],33.7 µM
same,TGI,[18],36.6 µM
same,TGI,[19],30.9 µM
same,TGI,[20],34.6 µM
same,TGI,[21],34.3 µM
same,TGI,[22],31 µM
same,TGI,[23],28.4 µM
same,TGI,[24],52.4 µM
same,TGI,[25],26.7 µM
same,TGI,[26],32.4 µM
same,TGI,[27],35.2 µM
same,TGI,[28],30.3 µM
same,TGI,[29],28.1 µM
same,TGI,[30],> 100 µM
same,TGI,[31],22.4 µM
same,TGI,[32],26 µM
same,TGI,[33],29.1 µM
same,TGI,[34],31.1 µM
same,TGI,[35],39.7 µM
same,TGI,[36],28.5 µM
same,TGI,[37],40.1 µM
same,TGI,[38],30.4 µM
same,TGI,[39],29.5 µM
